Laboratory results taken from patent EP1344776A1, “5- 2-hydroxy-3-[1-(3-trifluoromethylphenyl)-cyclopropyl]-propionylamino -phtalide and 6- 2-hydroxy-3-[1-(3-trifluoromethylphenyl)-cyclopropyl]-propionylamino -4-methyl-2,3-benzoxazin-1-one derivatives with progesterone receptor modulating activity for use in fertility control, hormone replacement …” (Schering Aktiengesellschaft, priority 2002, dated 2003).

Experiments:
[1] = system: Pregnant rats (Wistar Han, SPF); assay: Pregnancy maintenance test in rat; format: in vivo
Description: In rats, castration induces termination of pregnancy. Progestins (combined with estrogens) are capable of maintaining pregnancy in castrated animals. However, the degree of pregnancy maintenance in castrated rats is optimal only in a defined dose range. Therefore, higher as well as lower doses generally induce a weaker effect. Accompanying treatment with defined doses of estrone (E1) increases the pregnancy maintaining effect of progestins.
Pregnant rats (Wistar Han, SPF) of 190 to 220 g (5 to 8 animals per dose) are ovariectomized on day 8 of pregnancy, 2 hours after the first substance administration. From day 8 to day 14, rats are daily treated with test progestin in combination with a standard dose of E1. One day later, animals are killed with carbon dioxide. For each animal, the number of living and dead fetuses is determined according to the heartbeat of the embryos. In case of empty uteri, the number of implantation sites is determined by means of staining with a 10 % ammonium sulfide solution.
S.c. (subcutaneous) application: The test progestin is dissolved in benzyl benzoate/castor oil (1+4 v/v), and the daily dose is administered in a volume of 1 ml/kg body weight.
P.o. (peroral) application: The test progestin is suspended in a carrier liquid (85 mg Myrj^R in 100 ml 0.9 % w/v NaCl solution), and the daily dose is administered in a volume of 2 ml/kg body weight.
I.p. (intraperitoneal) application: The test progestin is dissolved in propylene glycol and charged in miniature osmotic pumps (type 2001, 1.0 µl/h, 7 days), which are placed in the abdominal cavity of the rat.
The standard dose of estrone is 0.005 mg/kg body weight s.c. and is dissolved in benzyl benzoate/castor oil ([…]).
It is determined the pregnancy maintenance per animal [%], the pregnancy maintenance per dose (median of single values) and the ED50 (dose, at which pregnancy is maintained in 50 % of the animals; 100 % corresponds to control animals that are not ovariectomized).

[2] = system: hPR-A; assay: PR-A transcription assay (MTV-LUC reporter, SK-N-MC cells); format: cell-based, human; conditions: 10^-7 mol/l test compound relative to R5020 10^-7 mol/l, 24 hours, 0.1 µM
Description: (§1) The method for screening for PR isoform-specific progestins according to the present invention is carried out with first and second SK-N-MC cells stably transfected with a plasmid expressing the hPR-A (first cells) or the hPR-B (second cells) and the LUC reporter gene linked to the hormonally responsive MTV promoter.
(§2) For the transcription assay, the cells are seeded onto 96-well dishes (2x 10^4 cells/dish) and cultured in a medium as described above, with the exception that the FCS is replaced by a 3 % charcoal stripped FCS. 48 hours later, cells are contacted with prediluted test compounds. For determination of agonistic activity, cells are cultured in the presence of increasing concentrations (10^-6 to 10^-11 mol/l) of test progestins. As a positive control for reporter gene induction cells are treated with 10^-6 to 10^-11 mol/l R5020 (promegestone). As a negative control for reporter gene induction, cells are cultured in 1 % ethanol.
(§3) Evaluation of the response gives the efficacy [%], and evaluation of the EC50 values gives the potency [nM]. Calculation of the agonistic activity is conducted as follows:
(§4) The LUC activity [%] for the measured data points is calculated as follows: relative LUC activity [%] = 100 x((response 10)^-6 (to 10)^-11 mol/l test compound - CO)/(CI - CO) [formula] wherein CI = 100 % stimulation (R5020, 10^-7 mol/l) and CO = 0 % stimulation (ethanol, 1 %).
(§5) Thus, the efficacy [%] is calculated according to: efficacy [%] = 100 x((response 10)^-7 mol/l test compound - CO)/(CI - CO) [formula]
(§6) The potency [nM], i.e. the EC50, is determined graphically.

[3] = target: T1, glucocorticoid receptor (GR) (Homo sapiens, UniProt P04150); assay: Glucocorticoid receptor binding
T1 sequence (P04150 1-777): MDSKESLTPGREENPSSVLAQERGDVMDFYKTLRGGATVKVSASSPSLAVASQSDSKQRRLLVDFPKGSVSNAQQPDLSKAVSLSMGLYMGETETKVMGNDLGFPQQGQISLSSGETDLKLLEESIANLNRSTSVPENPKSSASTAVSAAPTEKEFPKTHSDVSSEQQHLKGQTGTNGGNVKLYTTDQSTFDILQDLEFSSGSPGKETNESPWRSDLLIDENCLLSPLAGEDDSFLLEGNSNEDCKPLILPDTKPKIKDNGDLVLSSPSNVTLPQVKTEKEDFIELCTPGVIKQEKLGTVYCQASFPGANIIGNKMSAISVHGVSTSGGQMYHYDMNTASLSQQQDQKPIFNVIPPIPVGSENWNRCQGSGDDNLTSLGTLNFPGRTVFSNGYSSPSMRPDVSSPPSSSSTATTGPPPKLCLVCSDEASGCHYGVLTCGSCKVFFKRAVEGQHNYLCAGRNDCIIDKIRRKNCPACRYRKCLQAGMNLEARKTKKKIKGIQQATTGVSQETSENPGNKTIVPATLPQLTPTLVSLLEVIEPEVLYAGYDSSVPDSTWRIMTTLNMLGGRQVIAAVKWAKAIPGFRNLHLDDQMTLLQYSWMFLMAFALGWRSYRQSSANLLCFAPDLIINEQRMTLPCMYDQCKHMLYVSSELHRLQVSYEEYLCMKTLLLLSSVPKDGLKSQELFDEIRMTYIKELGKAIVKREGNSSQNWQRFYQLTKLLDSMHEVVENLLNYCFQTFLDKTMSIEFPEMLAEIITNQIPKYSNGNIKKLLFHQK

[4] = system: hPR-B; assay: PR-B transcription assay (MTV-LUC reporter, SK-N-MC cells); format: cell-based, human; conditions: 10^-7 mol/l test compound relative to R5020 10^-7 mol/l, 24 hours, 0.1 µM
Description: as §1
The cells are cultured in Minimum Essential Medium with Earl's Salts (S-MEM, without L-glutamine; Gibco BRL, no. 21090-022), supplemented with 10 % fetal calf serum (FCS), penicillin 100U/streptomycin 100 µg/ml (Biochrom, no. A2213), L-glutamine 4 mmol/l (Gibco BRL, no. 25030-024), sodium pyruvate 1 mmol/l (Biochrom, no. L0473) and 1x non-essential amino acids (Biochrom, no. K0293) at a temperature of 37 °C and in an atmosphere of 5 % carbon dioxide.
as §2
After incubation with test progestins for 24 hours, the medium is removed and cells are lysed with 20 µl of lysis buffer (Luciferase Assay System E 153A; Promega) and under agitation of the plate for 10 min. After addition of 30 µl of luciferase reagent (Luciferase Assay System E 151A + 152A; Promega) within 30 seconds per plate, the activity of the luciferase reporter gene product is determined in the cell lysates by means of a Microlite ML 3000 microtiter plate luminometer (Dynatech) in cycle mode.
as §3, §4, §5, §6

O=C1OCc2cc(NC(=O)C(O)(CC3(c4cc(C(F)(F)F)ccc4F)CC3)C(F)(F)F)ccc21 (single isomer, unassigned; (+)) [((+)-1), (+)-5-{2-hydroxy-3-[1-(2-fluoro-5-trifluoromethylphenyl)-cyclopropyl]-2-trifluoromethyl-propionylamino}-phthalide]
Maintenance of pregnancy (rat) [ED50] ([1]; ovariectomized pregnant rats, with estrone): 0.012 mg/kg
potency compared to levonorgestrel (LNG), pregnancy maintenance test ([1]; rat, times more potent than LNG): about 10
androgenic activity in pregnancy maintenance test ([1]; rats, dose 100 times higher than the dose required for maintaining pregnancy): no androgenic activity
PR-A agonism efficacy [2]: 88.7%
affinity for the glucocorticoid receptor (GR) [3]: very high
PR-B agonism efficacy [4]: 25%
